Molecules are shown by their SMILES.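 Interpolation was linear, between the two tested concentrations surrounding the appropriate level; five concentrations were tested over 48 hours in 96-well plates. GI50 is the concentration that inhibits growth by half.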 Active and inactive are the calls of the source. Cut-off read from the data, not from the text of the source: active = GI50 up to about 1.1 µM and inactive = higher. Some results are limits rather than exact numbers.

Test systems include CCRF-CEM; COLO 205; HOP-62; HOP-92; HT-29; K562; NCI-H226; NCI-H23; NCI-H522; NCI/ADR-RES; OVCAR-3; OVCAR-5; OVCAR-8; SF-268; SF-539; SNB-19; U-251; UACC-257; UACC-62; UO-31.
Experiment in all cases: NCI-60 cell line screen, 48 h

Consider `COc1ccc(C2COc3cc(OC(C)=O)c(OC(C)=O)cc3C2)cc1` (stereo not given), for which the GI50 was 3.09 µM (inactive) with CCRF-CEM; 20 µM (inactive) with COLO 205; 31.6 µM (inactive) in the test on HOP-62; 9.08 µM (inactive) with HOP-92; 28.2 µM (inactive) with HT-29; 16.3 µM (inactive) in the test on K562. The GI50 in the test on NCI-H226 is 24.3 µM (inactive); with NCI-H23, 27.5 µM (inactive); in the test with NCI-H522, 1.97 µM (inactive); in the test with NCI/ADR-RES, 36.3 µM (inactive); in the test on OVCAR-3 it was 19.6 µM (inactive); in the test with OVCAR-5, 27.1 µM (inactive). Besides, the GI50 with OVCAR-8 was 18.8 µM (inactive); with SF-268 it was 12.3 µM (inactive); in the test on SF-539, 19.9 µM (inactive); with SNB-19, 7.74 µM (inactive); in the test with U-251, 6.49 µM (inactive); in the test on UACC-257, 23.6 µM (inactive). Also, the results for the GI50 in the test with UACC-62 and with UO-31 were 19 µM (inactive) and 19.5 µM (inactive), respectively.
As to `CCCN1C(=O)/C(=C(/O)C(=O)OCC)C(c2ccc(OC)c(OC)c2)C1=O` (stereo not given), the GI50 in the test with CCRF-CEM, with COLO 205, with HOP-62, in the test with HOP-92, with HT-29 and with K562 was > 100 µM (inactive) throughout. The GI50 in the test on NCI-H226 is > 100 µM (inactive); in the test on NCI-H23, > 100 µM (inactive); in the test on NCI-H522, > 100 µM (inactive); with NCI/ADR-RES it was > 100 µM (inactive); with OVCAR-3 it was > 47.8 µM (inactive); in the test with OVCAR-5, > 100 µM (inactive). The GI50 in the test with OVCAR-8, in the test on SF-268, with SF-539, in the test with SNB-19, in the test on U-251 and in the test on UACC-257 was > 100 µM (inactive) each time. In addition, the GI50 in the test with UACC-62 and in the test on UO-31 was > 100 µM (inactive) throughout.
Turning to `CCOC(=O)CN(CC)C(=O)NC12CC3CC(CC(C3)C1)C2`, the GI50 with CCRF-CEM is 211 µM (inactive); in the test with COLO 205, 141 µM (inactive); in the test with HOP-62, 188 µM (inactive); in the test on HOP-92 it was 67 µM (inactive); in the test with HT-29, 166 µM (inactive); in the test with K562 it was 180 µM (inactive). The GI50 is 160 µM (inactive) with NCI-H226; 208 µM (inactive) in the test with NCI-H23; 155 µM (inactive) in the test on NCI-H522; 196 µM (inactive) with NCI/ADR-RES; 105 µM (inactive) in the test with OVCAR-3; 225 µM (inactive) with OVCAR-5. In addition, the GI50 in the test on OVCAR-8 was 292 µM (inactive); in the test on SF-268, 281 µM (inactive); in the test on SF-539 it was 244 µM (inactive); with SNB-19, 339 µM (inactive); in the test on U-251, 246 µM (inactive); in the test with UACC-257, 144 µM (inactive). Moreover, the GI50 was 116 µM (inactive) in the test on UACC-62 and 139 µM (inactive) in the test with UO-31.
In the case of `CC1=NCCc2cc3[nH]c4ccccc4c3cc21`, the GI50 is 12.5 µM (inactive) in the test with CCRF-CEM; 9.91 µM (inactive) in the test with COLO 205; 49.3 µM (inactive) with HOP-62; 0.897 µM (active) in the test with HOP-92; 14.8 µM (inactive) in the test on HT-29; 9.79 µM (inactive) with K562. Further, the GI50 was 15.2 µM (inactive) with NCI-H226; 33 µM (inactive) in the test with NCI-H23; 21.3 µM (inactive) in the test on NCI-H522; 23.7 µM (inactive) in the test on NCI/ADR-RES; 50.2 µM (inactive) with OVCAR-3; 16.6 µM (inactive) with OVCAR-5. The GI50 in the test on OVCAR-8 was 24.6 µM (inactive); in the test on SF-268, 22.1 µM (inactive); in the test on SF-539 it was 12.6 µM (inactive); in the test on SNB-19, 49.1 µM (inactive); with U-251, 22.7 µM (inactive); with UACC-257, 10.3 µM (inactive). The GI50 with UACC-62 is 14.3 µM (inactive); in the test on UO-31, 17.6 µM (inactive).

These data come from ChEMBL document CHEMBL1201862, “PubChem BioAssay data set” (2004).
